Patent US11083699B2, “Trans-4-hydroxycyclohexyl phenyl amide mitofusin activators and methods of use thereof” (MITOCHONDRIA EMOTION, INC., priority 2019, dated 2021)
Read-outs that look alike come from different tables or passages of the source.

Legend:
[1] = Mouse PK, plasma and brain levels after single IV dose; format: in vivo; settings: single 10 mg/kg IV
MAO-A = molecular target: T1, MAO-A (Homo sapiens, UniProt P21397); assay: Receptor/kinase panel: MAO-A; format: biochemical; settings: off-target DAT/MAO-A at 10 μM vs on-target potency
T1 sequence (P21397 1-527): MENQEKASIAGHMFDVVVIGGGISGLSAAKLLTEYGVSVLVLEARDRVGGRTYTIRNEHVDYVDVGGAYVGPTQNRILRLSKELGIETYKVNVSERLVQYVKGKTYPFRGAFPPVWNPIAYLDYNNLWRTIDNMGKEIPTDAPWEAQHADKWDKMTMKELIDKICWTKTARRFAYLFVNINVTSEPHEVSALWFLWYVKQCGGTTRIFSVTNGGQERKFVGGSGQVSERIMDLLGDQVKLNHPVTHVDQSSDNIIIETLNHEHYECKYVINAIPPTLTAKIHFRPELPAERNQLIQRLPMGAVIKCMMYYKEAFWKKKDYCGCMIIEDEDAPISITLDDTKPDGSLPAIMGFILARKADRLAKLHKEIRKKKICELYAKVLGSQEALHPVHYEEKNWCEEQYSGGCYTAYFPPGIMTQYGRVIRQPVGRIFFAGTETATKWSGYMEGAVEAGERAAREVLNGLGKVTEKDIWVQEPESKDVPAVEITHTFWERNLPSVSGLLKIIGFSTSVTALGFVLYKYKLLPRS

[2] = Stability in mouse liver microsomes; format: in vitro ADME
[3] = Stability in human liver microsomes; format: in vitro ADME
[4] = Parallel artificial membrane permeability assay (PAMPA); format: in vitro ADME
P-gp = P-gp (Homo sapiens, UniProt P08183); assay: P-gp study, bidirectional permeability in NIH MDR1 cells; format: in vitro ADME
Chain of P-gp (P08183 whole entry): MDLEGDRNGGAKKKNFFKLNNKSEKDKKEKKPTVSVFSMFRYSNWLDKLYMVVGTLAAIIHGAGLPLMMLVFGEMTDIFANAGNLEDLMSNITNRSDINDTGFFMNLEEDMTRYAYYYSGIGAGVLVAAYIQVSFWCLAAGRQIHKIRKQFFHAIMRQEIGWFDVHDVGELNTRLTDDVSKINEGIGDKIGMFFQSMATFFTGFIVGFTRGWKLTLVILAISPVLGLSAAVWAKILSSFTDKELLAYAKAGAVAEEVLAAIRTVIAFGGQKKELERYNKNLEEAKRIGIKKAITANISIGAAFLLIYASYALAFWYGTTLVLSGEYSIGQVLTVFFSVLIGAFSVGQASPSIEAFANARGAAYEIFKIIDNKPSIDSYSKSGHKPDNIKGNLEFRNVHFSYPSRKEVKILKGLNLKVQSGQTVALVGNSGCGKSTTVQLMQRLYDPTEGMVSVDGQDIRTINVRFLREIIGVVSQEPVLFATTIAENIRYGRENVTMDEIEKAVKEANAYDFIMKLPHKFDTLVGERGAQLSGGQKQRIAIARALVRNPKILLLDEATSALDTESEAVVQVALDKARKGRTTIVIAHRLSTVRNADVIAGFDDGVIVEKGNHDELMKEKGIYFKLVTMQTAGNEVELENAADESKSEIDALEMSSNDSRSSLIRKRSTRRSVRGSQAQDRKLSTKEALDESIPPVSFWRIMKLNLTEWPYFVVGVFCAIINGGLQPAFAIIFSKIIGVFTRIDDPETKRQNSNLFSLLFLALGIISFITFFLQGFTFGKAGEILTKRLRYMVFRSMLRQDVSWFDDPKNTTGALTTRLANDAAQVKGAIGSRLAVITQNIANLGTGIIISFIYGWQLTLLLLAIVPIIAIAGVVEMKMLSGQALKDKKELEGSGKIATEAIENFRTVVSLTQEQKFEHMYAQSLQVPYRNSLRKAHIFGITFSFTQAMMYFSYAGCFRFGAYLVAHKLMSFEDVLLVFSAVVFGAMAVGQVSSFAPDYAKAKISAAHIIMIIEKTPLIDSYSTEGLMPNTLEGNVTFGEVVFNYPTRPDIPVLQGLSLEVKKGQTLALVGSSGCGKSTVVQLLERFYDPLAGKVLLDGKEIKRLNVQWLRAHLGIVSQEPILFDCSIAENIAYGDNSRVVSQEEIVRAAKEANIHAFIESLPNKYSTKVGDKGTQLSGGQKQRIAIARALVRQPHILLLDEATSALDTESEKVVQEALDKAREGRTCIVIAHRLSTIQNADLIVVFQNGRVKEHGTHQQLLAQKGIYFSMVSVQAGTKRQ

[5] = GF120918 −, read-out: Mean Recovery % A to B

O=C(CCCCCc1ccccc1)N[C@H]1CC[C@H](O)CC1 [Compound 15B, N-(trans-4-Hydroxycyclohexyl)-6-phenylhexanamide]
Vdss (volume of distribution at steady state) [1]: 0.35 L/kg
time therapeutic brain levels (>30 ng/g) were maintained [1]: more than 2 hours
safety window compared to on-target efficacy (MAO-A): 1,000 fold

O=C(CCCCOc1ccccc1)N[C@H]1CC[C@H](O)CC1 [Compound 21]
t1/2 MLM [2]: >2.42 h
t1/2 HLM [3]: >2.42 h

O=C(CCCOCc1ccccc1)N[C@H]1CC[C@H](O)CC1 [Compound 22]
t1/2 MLM [2]: >2.42 h
t1/2 HLM [3]: >2.42 h

O=C(CCOCCc1ccccc1)N[C@H]1CC[C@H](O)CC1 [Compound 23]
t1/2 MLM [2]: >2.42 h
t1/2 HLM [3]: >2.42 h

O=C(COCCCc1ccccc1)N[C@H]1CC[C@H](O)CC1 [Compound 24]
t1/2 MLM [2]: >2.42 h
t1/2 HLM [3]: >2.42 h

O=C(N[C@H]1CC[C@H](O)CC1)OCCCCc1ccccc1 [Compound 25]
t1/2 MLM [2]: 0.815 h
t1/2 HLM [3]: 2.188 h
PAMPA compared to parent trans-N-(4-hydroxycyclohexyl)-6-phenylhexanamide [4]: 10 fold

C[C@H]1O[C@@H](O[C@H]2[C@@H](O)C[C@H](O[C@H]3[C@@H](O)C[C@H](O[C@H]4CC[C@@]5(C)[C@H](CC[C@@H]6[C@@H]5C[C@@H](O)[C@]5(C)[C@@H](C7=CC(=O)OC7)CC[C@]65O)C4)O[C@@H]3C)O[C@@H]2C)C[C@H](O)[C@@H]1O [Digoxin]
recovery (P-gp; [5]): 98.9%
recovery (P-gp; GF120918 −, read-out: Mean Recovery % B to A): 103%
Papp B→A (P-gp; MDCK-MDR1, with GF120918 (concentration not stated), GF120918 +): 2.05 ×10⁻⁶ cm/s
Papp B→A (P-gp; MDCK-MDR1, GF120918 −): 13.4 ×10⁻⁶ cm/s
recovery (P-gp; with GF120918 (concentration not stated), GF120918 +, read-out: Mean Recovery % B to A): 99.3%

COCCc1ccc(OCC(O)CNC(C)C)cc1 (centres unmarked) [Metoprolol]
recovery (P-gp; [5]): 105%
Papp A→B (P-gp; MDCK-MDR1, GF120918 −): 21.2 ×10⁻⁶ cm/s

CC(C)(C)NCC(O)COc1cccc2c1CC(O)C(O)C2 (centres unmarked) [Nadolol]
recovery (P-gp; [5]): 97.9%
Papp A→B (P-gp; MDCK-MDR1, GF120918 −): 0.26 ×10⁻⁶ cm/s
